# Source: patent US5447911A, “Ghilanten antimetastatic principle from the south american leech, Haementeria ghilianii” (Merrell Dow Pharmaceuticals Inc., priority 1994, dated 1995)
# Test system: B16 melanoma F10 cells
# Assay: Metastatic spread of B16-F10 melanoma cells to the lungs of C57/BL mice
# Format: in vivo
# Method: To confirm the anti-metastatic activity of the proteinaceous substances of this invention, 1×10^5 viable B16 melanoma F10 line cells were injected i.v. through the tail vein of C57/BL mice. The antimetastatic factor was then administered i.v. at -2, +2, +4 and +6 hours relative to the tumor innoculum at t=0 hours. At the end of 15 days, the animals were sacrificed and the number of metastatic foci in the lungs were quantitated. The results observed are summarized in Table 1 below, with n indicating the number of animals used in the test.
# B16 melanoma F10 cells (1 × 10^5 cells/animal) were injected i.v.
# into the tail vein of C57/Bl mice on day 0. Vehicle: 10 mM Hepes, 0.15M
# NaCl, pH 7.4 containing 10 mg/ml BSA; recombinantHirudin (25 antithrombin
# units) and FXa inhibitor (1-2 μg) were injected into the mice i.v. at
# -2, +2, +4, +6 hrs. after tumor cell innoculation. The animals were
# sacrificed at 14 days post tumor cell innoculation. The lungs were
# dissected, fixed, and the number of pulmonary metas tases were determined
# under a dissecting microscope. […]
# [1] = Table 1, recombinant hirudin 25 antithrombin units or FXa inhibitor 1-2 μg i.v. at -2, +2, +4, +6 hrs, versus vehicle control
substance,measurement,setting,value
Hirudin,No. of Metastatic Foci (Mean + S.E.; n = 6),"Table 1, lungs, recombinant hirudin 25 antithrombin units or FXa inhibitor 1-2 μg i.v. at -2, +2, +4, +6 hrs, 14 days post innoculation",198 ± 10
same,% Inhibition (metastatic foci),[1],0%
same,% Potentiation (metastatic foci),[1],21%
same,Effect on metastasis (in words),"administered -2, +2, +4 and +6 hours relative to tumor cell innoculation",caused a moderate increase in metastatic foci
